Earlier results as cited in patent US9463220B2, “Method for inducing twin calving” (China Agricultural University, priority 2013, dated 2016).

Test system: cow
Settings: small doses of FSH with estrus synchronization 13 days before and aspiration of more than 3 large follicles on day 7

follicle-stimulating hormone [FSH]
rate of 2-3 ovulations: 90%
